Test results reported in PMC4448988 (Pharmacology Research & Perspectives, 2015).

Tests used:
[1] = test system: ED-71 O-dehydroxypropylation activity in human small intestine microsomes; type: in vitro ADME; settings: 1 μmol/L ketoconazole
human CYP24A1 = human CYP24A1 (Homo sapiens, UniProt Q07973); type: in vitro ADME; settings: pH 7.4

| Structure (SMILES) | ED-71 O-dehydroxypropylation activity reduced to (remaining activity) [1] [%] | Relative kcat/Km (human CYP24A1) |
| --- | --- | --- |
| CC(=O)N1CCN(c2ccc(OCC3COC(Cn4ccnc4)(c4ccc(Cl)cc4Cl)O3)cc2)CC1 (centres unmarked) [ketoconazole] | 37 | – |
| C=C1/C(=C\C=C2/CCC[C@]3(C)[C@@H]([C@H](C)CCCC(C)(C)O)CC[C@@H]23)C[C@@H](O)C[C@@H]1O [1α,25(OH)2D3, 1α,25-dihydroxyvitamin D3] | – | 1 |
